Measured values: paper PMC10570359, “Dietary supplementation of cystinotic mice by lysine inhibits the megalin pathway and decreases kidney cystine content” (Scientific Reports, 2023)

Legend:
[1] = tested on: kidney proximal tubular cells; assay: In vivo endocytic tracing with TexasRed-ovalbumin in WT mice; details: 3 weeks diet
Experimental: We also examined whether apical endocytic trafficking of megalin cargo could be blocked under 5x-L-lysine, using apical endocytic tracing in WT mice with the fluorescent megalin ligand, TexasRed-ovalbumin (TxR-OVA). Normally, mice feed at night hours. To optimize PT exposure to ingested lysine during endocytic tracing performed at day hours, mice were first reprogrammed by adaptation to inverted […]. […] This implied that the extent of competition in cortical PTCs could be greatly underestimated by measured LMWPuria. At higher magnification, contacts of TxR-OVA labeled apical endosomes with lysosomes in cortical PTCs were still visible under 5X-L-Lysine, arguing against a major impairment of apical endosomal trafficking (Fig. 4b). […]
(§1) For in vivo endocytic tracing in PTCs, Texas Red-ovalbumin (300 µg, Invitrogen #O23021) was injected intravenously at 20 min before sacrifice. […] Proliferative events in kidney cortex were quantified as described. […] Histological PAS staining and quantification of the frequency of swan-neck lesions were performed as described. Sirius Red staining of paraffine sections and morphometry in total sagittal kidney sections after conversion to red fluorescence were performed as described[53],[54].

[2] = tested on: Ctns KO mice kidneys; assay: Kidney histology (swan-neck lesions, Sirius-red fibrosis) in Ctns KO mice; format: in vivo; details: primary prevention, diet from 2-to-6 months-of-age, control diet ~ 80%
Excerpt: By histological survey, no obvious change was evidenced after HE or PAS staining (Supplemental Fig. 4a). We thus scored the abundance of characteristic swan-neck lesions at the glomerulo-tubular junction, a quantitative marker disease, and again found no detectable protection (Supplemental Fig. 4b). However, at 6-months-of-age as baseline, most junctions were already altered (~ 80%), leaving little scope for a potential benefit. […] To look for fibrosis, histological sections at 8 months-of-age were stained with Sirius-red; its signal was automatically divided into three intensity levels over the entire kidney cortex. This quantification disclosed no detectable decrease of Sirius-red staining, thus fibrosis, upon dAAs at this interval (Supplemental Fig. 4c,d).
as §1, with “described[53],[54]. […]” for “described[53],[54].”
Fo r the significance of swan-necks, please see [26]. Fo r more information on swan-neck quantification, see [22]. […]

[3] = tested on: cystinotic rat model; assay: 5x-L-lysine diet in cystinotic rat model (preliminary, not shown); format: in vivo; details: preliminary results (not shown)
[4] = tested on: kidney proximal tubular cells; details: Ctns KO mice kidneys at 8 months of age
Experimental: At cellular level, we assessed PT cell death linked to compensatory renewal, by measuring Ki-67 immunolabelling abundance, a validated proliferation index (Fig. 6a)[22].
(a) Proliferative events in PTCs were identified by Ki-67 immunolabelling in confocal images and scored over random fields to cumulative areas of 0.96 mm^2.
For immunofluorescence, antigen retrieval was promoted in citrate buffer, pH 6, at 95 °C for 20 min using a Lab Vision Pretreatment Module™ (Thermo Scientific). Tissue was permeabilized with PBS/0.3% Triton-X100 for 5 min, then for one further hour with 10% bovine serum albumin (BSA)/3% milk to block non-specific sites. […] After washing, sections were further incubated with the appropriate AlexaFluor-secondary antibodies for 1 h at room temperature in 10% BSA/0.3% Triton-X100 and mounted with Faramount aqueous mounting medium (Dako). Sections were imaged on a spinning disk confocal microscope using EC Plan-NeoFluar 40X/1.3 or 100x/1.4 Oil DIC objective (Cell Observer Spinning Disk; Zeiss). Proliferative events in kidney cortex were quantified as described[22].

[5] = tested on: kidney tubular reabsorption of LMWPs; parameters: method as in PMID 98829; details: humans, intravenous injection; cited from earlier work
[6] = tested on: megalin and cubilin; parameters: method as in PMID 16508656; details: rats, cited from earlier work
[7] = Tolerance of prolonged 5x-dAA diets in mice; details: ad libitum 5x-supplemented solid diet, approx. 45 mmoles/kg/day
Excerpt: Ctns knockout mice (C57BL/6 background) were kindly provided by Dr. Corinne Antignac[18]. […] The same increase was set for L- (and D-) lysine.

[8] = tested on: megalin pathway; details: mouse, in vivo
Experimental: After 24-h adaptation in metabolic cages, urine was collected during the following 24 h in presence of 0.1% sodium azide and 1x-protease inhibitors (Thermo Scientific). When in metabolic cages, mice had free access to tap water and food. Blood was collected 2 days before starting the treatments and entry into metabolic cages (baseline) and at the sacrifice to obtain serum. Body weight was recorded before entering the metabolic cages. Urine and serum analyses were performed by the veterinary laboratory Appialab Srl (Rome, Italy). Urinary levels of CC16 were measured by the Mouse Clara Cell Protein 16 kit 96 T #EKU03200 (Biomatik) according to manufacturer’s instructions. Serum levels of cystatin-C were measured by the Mouse/Rat Cystatin C Quantitative ELISA #MSCTC0 (R&D Systems). […] Creatinine clearance was normalized by mouse body weight.

Structure (SMILES)	distribution of endocytic load from S1/S2 (cortex) to S3 segment (outer medulla) ([1]; inverted light cycle)	TxR-OVA fluorescence intensity in cortical PTCs ([1]; inverted light cycle (reprogrammed feeding hours), 20 min after injection)	swan-neck frequency at 6 months-of-age [2]	Fanconi syndrome [3]	kidney cystine accumulation [3]	Ki-67 proliferation index in PTCs [4]	impact on glomerular filtration [5]	inhibition of kidney tubular reabsorption of LMWPs [5]	tolerance ([6]; 1-day gavage, 80 mmoles/kg)	LMWPuria ([6]; gavage for one day)	localization of megalin and cubilin in PTCs ([6]; gavage for one day, from base of brush border to brush border itself)	tolerance of prolonged diet [7]	Urine microalbumin/creatinine [8] [mg/g]	increase of microalbuminuria vs control diet [8]
NCCCC[C@H](N)C(=O)O [5x-L-lysine, L-lysine]	strong redistribution	greatly decreased	~ 20%	serious worsening	considerably decreased	undistinguishable	no impact	dose-dependent (up to complete) inhibition	well tolerated	prominent LMWPuria	striking relocation	well tolerated		
N=C(N)NCCC[C@H](N)C(=O)O [5x-L-arginine, L-arginine]													0.2 ± 0.0	no detectable increase
